According to patent publication US20250057820A1, “AUTOTAXIN (ATX) INHIBITOR FOR THE TREATMENT OF PANCREATIC CANCER” (priority 2021, published 2025):

Assays:
[1] = system: PANC-1 tumour cells; details: for tumour growth inhibition: BALB/C nude mice, tumour weight at day 42
Method: The therapeutic efficacy of Compound 1 with or without gemcitabine was evaluated in the orthotopic PANC-1 mouse model of pancreatic cancer. This model is constituted by the implantation of PANC-1 tumor cells into the pancreas […] in BALB/C nude mice.
Each mouse was inoculated into the subcapsular region of the pancreas with PANC-1 tumour cells (3×10^6) in 50 uL PBS with Matrigel (1:1). The date of tumour cell inoculation was denoted as day 0. Randomization started 10 days after tumour cell inoculation based on body weight. 10 mice per group were assigned to treatment by oral gavage with vehicle (1% methylcellulose, BID), gemcitabine (25 mg/kg, Q4D), Compound 1 (10 mg/kg, BID), or Compound 1 (10 mg/kg, BID) and gemcitabine (25 mg/kg, Q4D). Tumor sizes were measured by weight after termination at day 42.

[2] = system: mPA6115-luc tumour cells; experiment: orthotopic mPA6115-luc mouse model of pancreatic cancer; type: in vivo; details: 10 mg/kg BID oral gavage, female C57BL/6 mice, FIG. 2
Method: This model is constituted by the implantation of mPA6115-luc cells originating from a spontaneous developed donor tumour in KPC mice into the pancreas of female wildtype C57BL/6 recipient mice.
Each mouse was inoculated into the subcapsular region of the pancreas with mPA6115-luc tumour cells (1×10^6) in 50 uL PBS with Matrigel (1:1). The date of tumour cell inoculation was denoted as day 0.
The randomization started 4 days after tumour cell inoculation based on the total flux (p/s, minimum flux>1E^6). 10 mice per group were assigned to treatment by BID oral gavage with vehicle (1% methylcellulose) or Compound 1 (10 mg/kg in 1% methylcellulose). Tumour growth and metastasis were imaged twice per week by bioluminescent imaging.

[3] = system: PANC-1 tumour cells; experiment: subcutaneous PANC-1 xenograft mouse model of pancreatic cancer; type: in vivo; details: BALB/c Nude mice, subcutaneous PANC-1, FIG. 3
Method: The therapeutic efficacy of Compound 1 was evaluated in the subcutaneous PANC-1 mouse model of pancreatic cancer.
BALB/c Nude mice were inoculated subcutaneously in the right front flank region with PANC-1 tumour cells (5×10^6) in 0.1 ml of PBS. The date of tumour cell inoculation was denoted as day 0. The randomization started when the mean tumour size>100 mm^3. 10 mice were enrolled per study group. Tumour growth and body weights were measured twice per week.

[4] = system: pancreatic cancer; details: pancreatic cancer patients, standard treatment; cited from earlier work
[5] = system: RC416 tumour cells; experiment: orthotopic RC416 mouse model of pancreatic cancer (survival); type: in vivo; details: Compound 1 10 mg/kg BID p.o., galunisertib 50 mg/kg BID p.o., gemcitabine 75 mg/kg QW i.p.; max 28 days treatment; FIG. 5
Text: This model is constituted by the implantation of RC416 cells originating from a spontaneous developed donor tumour in KPC mice into the pancreas of female wildtype C57BL/6 recipient mice. The pathology and tumour microenvironment in this model closely resemble human pancreatic cancer and is characterized by high circulating ATX and TGF-β.
The day of tumour cell inoculation was denoted as day 0. Randomization started 7 days after tumor cell inoculation, based on body weight. 5 mice per group were assigned to treatment, with vehicle (1% methylcellulose, BID p.o.), Compound 1 (10 mg/kg, BID p.o.), galunisertib (50 mg/kg, BID p.o.), gemcitabine (75 mg/kg, QW i.p.), or the combinations of Compound 1 plus gemcitabine, Compound 1 plus galunisertib and gemcitabine, and galunisertib plus gemcitabine, Mice were treated for a maximum of 28 days and anti-tumour activity was measured by survival.

[6] = Compound 1 10 mg/kg BID, gemcitabine 25 mg/kg Q4D

SMILES | tumour growth inhibition [1, 6] [%] | tumour outgrowth based on total bioluminescence [2] | tumour outgrowth [3] | average median overall survival [4] [months] | response rate [4] | mice died or sacrificed for reaching humane endpoints (mortality) ([1]; 10 mice per group, Compound 1 10 mg/kg BID, gemcitabine 25 mg/kg Q4D) [mice] | Number of Mice on Day 42 ([1]; BALB/C nude, mouse, in vivo, 42 day) | Pancreas Size (mg) on Day 42 ([1]; Day 42) | survival [5]
C[C@H](NC(=O)CCc1nc2cccnc2n1Cc1ccc(OC(F)(F)F)cc1)c1ccc(Cl)cc1 [Compound 1, N—[(S)-1-(4-chloro-phenyl)-ethyl]-3-[3-(4-trifluoromethoxy-benzyl)-3H-imidazo[4,5-b]pyridin-2-yl]-propionamide] | 5 | significantly reduced tumour outgrowth | reduced tumour outgrowth | – | – | – | – | – | –
Nc1ccn([C@@H]2O[C@H](CO)[C@@H](O)C2(F)F)c(=O)n1 [gemcitabine] | 41 | – | – | 6 | 5-10% | 5 | 5 | 549 + 44 mg | limited survival benefit
